In US20060212961A1, “Rice transposon gene” (priority 2003, published 2006):

What was measured:
pyl-stb seeds = assay: Azacytidine treatment of pyl-stb seeds, appearance of mutable (pyl-v) individuals; format: in vivo, rice; details: for Germination rate (%) / Mutable individual (%) / Individual with mutable or abnormal phenotype / Mutable individual / Normal individual: seeds macerated 24 hrs at 30° C.; for Individual with mutable or abnormal phenotype / Mutable individual / Normal individual: number of individuals
Protocol: pyl-stb seeds were macerated in 0.15, 0.3 or 0.45 mM azacytidine aqueous solution for 24 hrs at 30° C., washed them, left for germination and examined the expression of pyl-v.

indica rice (93-11) = assay: Azacytidine treatment of indica rice (93-11), release of nDart; format: in vivo; details: 93-11 treated with azacytidine; no release under usual growth conditions
Protocol: Furthermore, indica rice (93-11) was treated with azacytidine and confirmed release of nDart.

## Nc1ncn([C@@H]2O[C@H](CO)[C@@H](O)[C@H]2O)c(=O)n1 [azaC, 5-azacytidine]
pyl-stb seeds; 0.15, 0.3 or 0.45 mM azacytidine aqueous solution, 24 hrs at 30° C.
  Frequency of the transposition of nDart: increased as the concentration of azacytidine increased
pyl-stb seeds; azaC 0.15 mM
  Germination rate (%): 99%
  Mutable individual (%): 60.6%
  Individual with mutable or abnormal phenotype: 17
  Mutable individual: 43
  Normal individual: 39
pyl-stb seeds; azaC 0.3 mM
  Germination rate (%): 92%
  Mutable individual (%): 69.6%
  Individual with mutable or abnormal phenotype: 27
  Mutable individual: 37
  Normal individual: 28
pyl-stb seeds; azaC 0.45 mM
  Germination rate (%): 95%
  Mutable individual (%): 73.7%
  Individual with mutable or abnormal phenotype: 36
  Mutable individual: 34
  Normal individual: 25
pyl-stb seeds; azacytidine treatment of pyl-stb seeds
  Change of pyl-stb to a pyl-v mutant: able to be changed to a pyl-v mutant
Indica rice (93-11)
  Release of nDart: release was confirmed
